{"source": "patent US12303505B2", "about": "“Tumor-treating pharmaceutical composition” (Eisai R&D Management Co., Ltd., priority 2017, dated 2025)", "type_in_all_cases": "in vivo", "key": {"[1]": {"tested_on": "Human hepatocellular carcinoma line HepG2 cells", "assay": "Antitumor effect in human hepatocellular carcinoma line HepG2 subcutaneous transplantation model, nude mice", "procedure": "Human hepatocellular carcinoma line HepG2 cells (JCRB Cell Bank) were cultured by using DMEM-Low glucose medium (Wako Pure Chemical Industries, Ltd.) containing 10% FBS in a 5% CO2 incubator under conditions of 37° C. When the cells became an approximately 80% confluent state, the cells were recovered by using trypsin-EDTA. A suspension was prepared by adding phosphate-buffered saline containing 50% Matrigel to the cells so as to be 10.0×10^7 cells/mL. 0.1 mL of the obtained cell suspension was subcutaneously transplanted to the sides of the bodies of five nude mice (CAnN.Cg-Foxn1^nu/CrlCrlj, Charles River Laboratories Japan, Inc.) each of a control group, an E7386 50 mg/kg alone administration group, a lenvatinib mesylate 10 mg/kg alone administration group, and a combined administration group of 50 mg/kg E7386 and 10 mg/kg lenvatinib mesylate. From 12 days after the transplantation, E7386 (50 mg/kg, b.d.s., 14 days, oral administration) and lenvatinib mesylate (10 mg/kg, q.d., 14 days, oral administration) were administered alone or in combination to the alone administration group or the combined administration group. For the administration, E7386 was dissolved in 0.1 mol/L hydrochloric acid, and lenvatinib mesylate was dissolved in 3 mmol/L hydrochloric acid. Any drug was not administered to the control group.\nWhen the start day of administration was defined as day 1, the major axis and minor axis of tumor developed in each mouse were then measured at day 4, day 7, day 9, day 13, and day 15 by using Digimatic Caliper (Mitutoyo Corp.).\n(§1) The tumor volume and the relative tumor volume (RTV) were calculated according to the following expressions. Tumor volume (mm^3)=Tumor major axis (mm)×Tumor minor axis^2 (mm^2)/2 Relative tumor volume (RTV)=Tumor volume at the measurement day/Tumor volume at the start day of administration"}, "[2]": {"tested_on": "human melanoma cell line SEKI", "assay": "Antitumor effect in human melanoma cell line SEKI transplantation model, nude mice", "procedure": "A human melanoma cell line SEKI (JCRB Cell Bank) was cultured by using RPMI1640 medium (Sigma-Aldrich Co. LLC) containing 10% FBS in a 5% CO2 incubator under conditions of 37° C. When the cells became an approximately 80% confluent state, the cells were recovered by using trypsin-EDTA. A suspension was prepared by adding Hank's balanced salt solution containing 50% Matrigel to the cells so as to be 5.0×10^7 cells/mL. 0.1 mL of the obtained cell suspension was subcutaneously transplanted to the sides of the bodies of six nude mice (CAnN.Cg-Foxn1^nu/CrlCrlj, Charles River Laboratories Japan, Inc.) each of a control group, an E7386 12.5 or 25 mg/kg alone administration group, a lenvatinib mesylate 10 mg/kg alone administration group, and a combined administration group of 12.5 or 25 mg/kg E7386 and 10 mg/kg lenvatinib mesylate. From 13 days after the transplantation, E7386 (12.5 or 25 mg/kg, b.d.s., 14 days, oral administration) and lenvatinib mesylate (10 mg/kg, q.d., 14 days, oral administration) were administered alone or in combination to the alone administration group or the combined administration group. For the administration, E7386 was dissolved in 0.1 mol/L hydrochloric acid, and lenvatinib mesylate was dissolved in 3 mmol/L hydrochloric acid. 0.1 mol/L hydrochloric acid (b.d.s., 14 days) was administered to the control group.\nWhen the start day of administration was defined as day 1, the major axis and minor axis of tumor developed in each mouse were then measured at day 4, day 8, day 11, and day 15 by using Digimatic Caliper (Mitutoyo Corp.).\nas §1"}, "[3]": {"tested_on": "Human hepatocellular carcinoma line SNU398 cells", "assay": "Antitumor effect in human hepatocellular carcinoma line SNU398 transplantation model, nude mice", "procedure": "Human hepatocellular carcinoma line SNU398 cells (ATCC) were cultured by using RPMI1640 medium (Wako Pure Chemical Industries, Ltd.) containing 10% FBS in a 5% CO2 incubator under conditions of 37° C. When the cells became an approximately 80% confluent state, the cells were recovered by using trypsin-EDTA. A suspension was prepared by adding Hank's balanced salt solution containing 50% Matrigel to the cells so as to be 5.0×10^7 cells/mL. 0.1 mL of the obtained cell suspension was subcutaneously transplanted to the sides of the bodies of eight nude mice (CAnN.Cg-Foxn1^nu/CrlCrlj, Charles River Laboratories Japan, Inc.) each of a control group, an E7386 50 mg/kg alone administration group, a lenvatinib mesylate 10 mg/kg alone administration group, and a combined administration group of 12.5, 25 or 50 mg/kg E7386 and 10 mg/kg lenvatinib mesylate. From 9 days after the transplantation, E7386 (12.5, 25, or 50 mg/kg, b.d.s., 14 days, oral administration) and lenvatinib mesylate (10 mg/kg, q.d., 14 days, oral administration) were administered alone or in combination to the alone administration group or the combined administration group. For the administration, E7386 was dissolved in 0.1 mol/L hydrochloric acid, and lenvatinib mesylate was dissolved in 3 mmol/L hydrochloric acid. Any drug was not administered to the control group.\nWhen the start day of administration was defined as day 1, the major axis and minor axis of tumor developed in each mouse were then measured at day 6, day 9, day 12, and day 15 by using Digimatic Caliper (Mitutoyo Corp.).\nas §1"}, "[4]": {"conditions": "Day 4, lenvatinib mesylate 10 mg/kg q.d. oral alone"}, "[5]": {"conditions": "Day 9, lenvatinib mesylate 10 mg/kg q.d. oral alone"}, "[6]": {"conditions": "Day 15, lenvatinib mesylate 10 mg/kg q.d. oral alone"}, "[7]": {"conditions": "Day 9, E7386 50 mg/kg b.d.s. oral alone"}, "[8]": {"conditions": "Day 15, E7386 50 mg/kg b.d.s. oral alone"}}, "note": "Structures can show the parent of a compound that is named as a salt."}
{"compound": "COc1cc2nccc(Oc3ccc(NC(=O)NC4CC4)c(Cl)c3)c2cc1C(N)=O", "note": "[Lenvatinib mesylate, 4-(3-chloro-4-(cyclopropylaminocarbonyl)aminophenoxy)-7-methoxy-6-quinolinecarboxamide, reference compound]", "values": [{"measurement": "Relative tumor volume (RTV), mean±SD", "setting": "[1]; [4]", "value": "1.10 ± 0.08"}, {"measurement": "Relative tumor volume (RTV), mean±SD", "setting": "[1]; Day 7, lenvatinib mesylate 10 mg/kg q.d. oral alone", "value": "1.60 ± 0.94"}, {"measurement": "Relative tumor volume (RTV), mean±SD", "setting": "[1]; [5]", "value": "2.07 ± 0.88"}, {"measurement": "Relative tumor volume (RTV), mean±SD", "setting": "[1]; Day 13, lenvatinib mesylate 10 mg/kg q.d. oral alone", "value": "2.70 ± 1.47"}, {"measurement": "Relative tumor volume (RTV), mean±SD", "setting": "[1]; [6]", "value": "3.43 ± 1.46"}, {"measurement": "Relative tumor volume (RTV), mean±SD", "setting": "[2]; [4]", "value": "1.60 ± 0.22"}, {"measurement": "Relative tumor volume (RTV), mean±SD", "setting": "[2]; Day 8, lenvatinib mesylate 10 mg/kg q.d. oral alone", "value": "2.66 ± 0.46"}, {"measurement": "Relative tumor volume (RTV), mean±SD", "setting": "[2]; Day 11, lenvatinib mesylate 10 mg/kg q.d. oral alone", "value": "3.81 ± 0.80"}, {"measurement": "Relative tumor volume (RTV), mean±SD", "setting": "[2]; [6]", "value": "4.67 ± 1.19"}, {"measurement": "Relative tumor volume (RTV), mean±SD", "setting": "[3]; Day 6, lenvatinib mesylate 10 mg/kg q.d. oral alone", "value": "3.98 ± 1.00"}, {"measurement": "Relative tumor volume (RTV), mean±SD", "setting": "[3]; [5]", "value": "6.48 ± 1.74"}, {"measurement": "Relative tumor volume (RTV), mean±SD", "setting": "[3]; Day 12, lenvatinib mesylate 10 mg/kg q.d. oral alone", "value": "8.33 ± 2.08"}, {"measurement": "Relative tumor volume (RTV), mean±SD", "setting": "[3]; [6]", "value": "9.71 ± 2.30"}]}
{"compound": "C=CCN1CC(=O)N2[C@@H](Cc3ccc(O)cc3F)C(=O)N(Cc3cccc(N4CC(N5CCN(CC)CC5)C4)n3)C[C@@H]2N1C(=O)NCc1ccccc1", "note": "[E7386, (6S,9aS)—N-Benzyl-8-({6-[3-(4-ethylpiperazin-1-yl)azetidin-1-yl]pyridin-2-yl}methyl)-6-(2-fluoro-4-hydroxybenzyl)-4,7-dioxo-2-(prop-2-en-1-yl)hexahydro-2H-pyrazino[2,1-c][1,2,4]triazine-1(6H)-carboxamide]", "values": [{"measurement": "Relative tumor volume (RTV), mean±SD", "setting": "[1]; Day 4, E7386 50 mg/kg b.d.s. oral alone", "value": "1.45 ± 0.23"}, {"measurement": "Relative tumor volume (RTV), mean±SD", "setting": "[1]; Day 7, E7386 50 mg/kg b.d.s. oral alone", "value": "3.05 ± 0.57"}, {"measurement": "Relative tumor volume (RTV), mean±SD", "setting": "[1]; [7]", "value": "3.96 ± 0.53"}, {"measurement": "Relative tumor volume (RTV), mean±SD", "setting": "[1]; Day 13, E7386 50 mg/kg b.d.s. oral alone", "value": "5.60 ± 1.02"}, {"measurement": "Relative tumor volume (RTV), mean±SD", "setting": "[1]; [8]", "value": "6.23 ± 1.39"}, {"measurement": "Relative tumor volume (RTV), mean±SD", "setting": "[2]; Day 4, E7386 12.5 mg/kg b.d.s. oral alone", "value": "1.65 ± 0.22"}, {"measurement": "Relative tumor volume (RTV), mean±SD", "setting": "[2]; Day 4, E7386 25 mg/kg b.d.s. oral alone", "value": "1.56 ± 0.21"}, {"measurement": "Relative tumor volume (RTV), mean±SD", "setting": "[2]; Day 8, E7386 12.5 mg/kg b.d.s. oral alone", "value": "3.02 ± 0.31"}, {"measurement": "Relative tumor volume (RTV), mean±SD", "setting": "[2]; Day 8, E7386 25 mg/kg b.d.s. oral alone", "value": "2.94 ± 0.22"}, {"measurement": "Relative tumor volume (RTV), mean±SD", "setting": "[2]; Day 11, E7386 12.5 mg/kg b.d.s. oral alone", "value": "4.19 ± 0.80"}, {"measurement": "Relative tumor volume (RTV), mean±SD", "setting": "[2]; Day 11, E7386 25 mg/kg b.d.s. oral alone", "value": "4.35 ± 0.36"}, {"measurement": "Relative tumor volume (RTV), mean±SD", "setting": "[2]; Day 15, E7386 12.5 mg/kg b.d.s. oral alone", "value": "5.53 ± 1.21"}, {"measurement": "Relative tumor volume (RTV), mean±SD", "setting": "[2]; Day 15, E7386 25 mg/kg b.d.s. oral alone", "value": "5.90 ± 1.34"}, {"measurement": "Relative tumor volume (RTV), mean±SD", "setting": "[3]; Day 6, E7386 50 mg/kg b.d.s. oral alone", "value": "3.74 ± 0.75"}, {"measurement": "Relative tumor volume (RTV), mean±SD", "setting": "[3]; [7]", "value": "6.31 ± 1.74"}, {"measurement": "Relative tumor volume (RTV), mean±SD", "setting": "[3]; Day 12, E7386 50 mg/kg b.d.s. oral alone", "value": "7.33 ± 0.89"}, {"measurement": "Relative tumor volume (RTV), mean±SD", "setting": "[3]; [8]", "value": "10.1 ± 1.03"}]}
